Experiments:
Format in all cases: in vivo
Echinochloa oryzicola = assay: Herbicidal activity by paddy field soil treatment (Test Example 1); set-up: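 index 0 to 10 in 10% steps of herbicidal effect with 10 meaning complete death and 0 below 10%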; details: 1000 g of effective component per hectare, evaluated on day 21 after the treatment, criteria of Table 72
Procedure, shortened: (§1)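 Using sown, 3 cm-flooded paddy soil pots, we apply diluted wettable powder to the water on day 1 post-sowing (1000 g active/ha), keep plants in a greenhouse, and grade herbicidal effects 21 days post-treatment.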

Monochoria vaginalis = assay: as above; set-up: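 index 0 to 10 in 10% steps of herbicidal effect with 10 meaning complete death and 0 below 10%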; details: 1000 g of effective component per hectare, evaluated on day 21 after the treatment, criteria of Table 72
Procedure, shortened: as §1

Scirpus juncoides Rocxb. = assay: as above; set-up: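 index 0 to 10 in 10% steps of herbicidal effect with 10 meaning complete death and 0 below 10%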; details: applied on water surface, 1000 g of effective component per hectare, day 21 after the treatment
Procedure, shortened: as §1

A. retroflexus [1] = assay: Herbicidal activity by field soil treatment (Test example 2); set-up: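 index 0 to 10 in 10% steps of herbicidal effect with 10 meaning complete death and 0 below 10%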; details: 1000 g effective component per hectare, day 21 after the treatment
Procedure, shortened: (§2)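 Pre-covered sown seed in field-soil pots (80 cm^2) got a soil-surface application of 1000 g/ha active ingredient, sprayed as a diluted wettable powder at 1000 L/ha water volume. Greenhouse-grown; herbicidal activity graded by criteria at 21 days post-application.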

Echinochloa crus-galli [2] = assay: as above; set-up: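 index 0 to 10 in 10% steps of herbicidal effect with 10 meaning complete death and 0 below 10%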; details: 1000 g effective component per hectare, day 21 after the treatment
Procedure, shortened: as §2

Indian millet [3] = assay: as above; set-up: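 index 0 to 10 in 10% steps of herbicidal effect with 10 meaning complete death and 0 below 10%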; details: 1000 g effective component per hectare, day 21 after the treatment
Procedure, shortened: as §2

foxtail = assay: as above; details: 1000 g effective component per hectare, day 21 after the treatment;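 note: index 0 to 10 in 10% steps of herbicidal effect with 10 meaning complete death and 0 below 10%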
Procedure: [table] Test for Determining Herbicidal Activity by Field Soil Treatment A 80 cm^2 wide plastic pot was filled with a field soil and seeds of each of Echinochloa crus-galli, foxtail, Indian millet, and A. retroflexus were sowed and then covered with soil. The wettable powder produced with reference to the Formulation example 1 was diluted water, and applied on the soil surface by using a small sprayer in an amount of 1000 liters per hectare so that the effective component is 1000 g per hectare. After that, the plants were cultivated in a greenhouse, and on day 21 after the treatment, evaluation was made by the criteria described in Table 72 for determining the herbicidal effects.

A. retroflexus [4] = assay: Herbicidal activity by field foliage treatment (Test example 3); set-up: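 index 0 to 10 in 10% steps of herbicidal effect with 10 meaning complete death and 0 below 10%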; details: 1000 g effective component per hectare, day 14 after the treatment
Procedure, shortened: (§3)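 Greenhouse foliar treatment at 1000 g a.i./ha of 2-week-old plants; herbicidal score at day 14.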

Indian millet [5] = assay: as above; set-up: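 index 0 to 10 in 10% steps of herbicidal effect with 10 meaning complete death and 0 below 10%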; details: 1000 g effective component per hectare, day 14 after the treatment
Procedure, shortened: as §3

Echinochloa crus-galli [6] = assay: as above; set-up: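 index 0 to 10 in 10% steps of herbicidal effect with 10 meaning complete death and 0 below 10%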; details: 1000 g effective component per hectare, day 14 after the treatment
Procedure, shortened: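 Herbicidal effect was rated on day 14 following a foliar spray of 1000 g active ingredient per hectare, applied as water-diluted wettable powder at 1000 L/ha. Plants had been raised for 2 weeks in field soil under greenhouse conditions before spraying.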

SMILES: Cc1ccc(-n2c(=O)c(C(=O)C3=C(O)CCCC3=O)nn(C)c2=O)cc1C [I-87]
- Herbicidal effects index number, Echinochloa oryzicola (Echinochloa oryzicola): 9
- Herbicidal effects index number, Monochoria vaginalis (Monochoria vaginalis): 10
- herbicidal effect index, S. juncoides Rocxb. (Scirpus juncoides Rocxb.): 10
- herbicidal effect index, Amaranthus retroflexus (A. retroflexus [1]): 9
- herbicidal effect index, Echinochloa crus-galli (Echinochloa crus-galli [2]): 9
- herbicidal effect index, Abutilon theophrasti (Indian millet [3]): 9
- herbicidal effect index, Setaria viridis (foxtail): 6
- herbicidal effect index, Amaranthus retroflexus (A. retroflexus [4]): 10
- herbicidal effect index, Abutilon theophrasti (Indian millet [5]): 9
- herbicidal effect index, Echinochloa crus-galli (Echinochloa crus-galli [6]): 9

SMILES: COc1ccc(-n2c(=O)c(C(=O)C3=C(O)CCCC3=O)nn(C)c2=O)cc1F [I-99]
- Herbicidal effects index number, Echinochloa oryzicola (Echinochloa oryzicola): 10
- Herbicidal effects index number, Monochoria vaginalis (Monochoria vaginalis): 10
- herbicidal effect index, S. juncoides Rocxb. (Scirpus juncoides Rocxb.): 10
- herbicidal effect index, Amaranthus retroflexus (A. retroflexus [1]): 10
- herbicidal effect index, Echinochloa crus-galli (Echinochloa crus-galli [2]): 8
- herbicidal effect index, Abutilon theophrasti (Indian millet [3]): 9
- herbicidal effect index, Setaria viridis (foxtail): 6
- herbicidal effect index, Amaranthus retroflexus (A. retroflexus [4]): 10
- herbicidal effect index, Abutilon theophrasti (Indian millet [5]): 10
- herbicidal effect index, Echinochloa crus-galli (Echinochloa crus-galli [6]): 9

SMILES: COc1cc(-n2c(=O)c(C(=O)C3=C(O)CCCC3=O)nn(C)c2=O)ccc1F [I-111]
- Herbicidal effects index number, Echinochloa oryzicola (Echinochloa oryzicola): 10
- Herbicidal effects index number, Monochoria vaginalis (Monochoria vaginalis): 10
- herbicidal effect index, S. juncoides Rocxb. (Scirpus juncoides Rocxb.): 10
- herbicidal effect index, Amaranthus retroflexus (A. retroflexus [1]): 10
- herbicidal effect index, Echinochloa crus-galli (Echinochloa crus-galli [2]): 9
- herbicidal effect index, Abutilon theophrasti (Indian millet [3]): 9
- herbicidal effect index, Setaria viridis (foxtail): 7
- herbicidal effect index, Amaranthus retroflexus (A. retroflexus [4]): 10
- herbicidal effect index, Abutilon theophrasti (Indian millet [5]): 10
- herbicidal effect index, Echinochloa crus-galli (Echinochloa crus-galli [6]): 10

SMILES: COc1cc(-n2c(=O)c(C(=O)C3=C(O)CCCC3=O)nn(C)c2=O)ccc1Cl [I-131]
- Herbicidal effects index number, Echinochloa oryzicola (Echinochloa oryzicola): 9
- Herbicidal effects index number, Monochoria vaginalis (Monochoria vaginalis): 10
- herbicidal effect index, S. juncoides Rocxb. (Scirpus juncoides Rocxb.): 10
- herbicidal effect index, Amaranthus retroflexus (A. retroflexus [1]): 10
- herbicidal effect index, Echinochloa crus-galli (Echinochloa crus-galli [2]): 9
- herbicidal effect index, Abutilon theophrasti (Indian millet [3]): 9
- herbicidal effect index, Setaria viridis (foxtail): 7
- herbicidal effect index, Amaranthus retroflexus (A. retroflexus [4]): 10
- herbicidal effect index, Abutilon theophrasti (Indian millet [5]): 10
- herbicidal effect index, Echinochloa crus-galli (Echinochloa crus-galli [6]): 10

SMILES: CC(C)n1nc(C(=O)C2=C(O)CCCC2=O)c(=O)n(-c2ccccc2)c1=O [I-260]
- Herbicidal effects index number, Echinochloa oryzicola (Echinochloa oryzicola): 10
- Herbicidal effects index number, Monochoria vaginalis (Monochoria vaginalis): 10
- herbicidal effect index, S. juncoides Rocxb. (Scirpus juncoides Rocxb.): 10
- herbicidal effect index, Amaranthus retroflexus (A. retroflexus [1]): 10
- herbicidal effect index, Echinochloa crus-galli (Echinochloa crus-galli [2]): 10
- herbicidal effect index, Abutilon theophrasti (Indian millet [3]): 10
- herbicidal effect index, Setaria viridis (foxtail): 5
- herbicidal effect index, Amaranthus retroflexus (A. retroflexus [4]): 10
- herbicidal effect index, Abutilon theophrasti (Indian millet [5]): 10
- herbicidal effect index, Echinochloa crus-galli (Echinochloa crus-galli [6]): 8

SMILES: Cn1nc(C(=O)C2=C(O)CCCC2=O)c(=O)n(-c2ccc(Cl)nc2)c1=O [I-280]
- Herbicidal effects index number, Echinochloa oryzicola (Echinochloa oryzicola): 10
- Herbicidal effects index number, Monochoria vaginalis (Monochoria vaginalis): 10
- herbicidal effect index, S. juncoides Rocxb. (Scirpus juncoides Rocxb.): 10
- herbicidal effect index, Amaranthus retroflexus (A. retroflexus [1]): 10
- herbicidal effect index, Echinochloa crus-galli (Echinochloa crus-galli [2]): 9
- herbicidal effect index, Abutilon theophrasti (Indian millet [3]): 9
- herbicidal effect index, Setaria viridis (foxtail): 8
- herbicidal effect index, Amaranthus retroflexus (A. retroflexus [4]): 10
- herbicidal effect index, Abutilon theophrasti (Indian millet [5]): 9
- herbicidal effect index, Echinochloa crus-galli (Echinochloa crus-galli [6]): 9

SMILES: Cc1cc(I)ccc1-n1c(=O)c(C(=O)C2=C(O)CCCC2=O)nn(C)c1=O [I-283]
- Herbicidal effects index number, Echinochloa oryzicola (Echinochloa oryzicola): 10
- Herbicidal effects index number, Monochoria vaginalis (Monochoria vaginalis): 10
- herbicidal effect index, S. juncoides Rocxb. (Scirpus juncoides Rocxb.): 10
- herbicidal effect index, Amaranthus retroflexus (A. retroflexus [1]): 10
- herbicidal effect index, Echinochloa crus-galli (Echinochloa crus-galli [2]): 9
- herbicidal effect index, Abutilon theophrasti (Indian millet [3]): 9
- herbicidal effect index, Setaria viridis (foxtail): 8
- herbicidal effect index, Amaranthus retroflexus (A. retroflexus [4]): 8
- herbicidal effect index, Abutilon theophrasti (Indian millet [5]): 8
- herbicidal effect index, Echinochloa crus-galli (Echinochloa crus-galli [6]): 8
